# Measured values taken from patent US4416877A, “Anti-atherosclerotic pharmaceutical compositions containing diphosphonate compounds” (priority 1979, dated 1983).
# “Also recorded” adds a separate entry of the source.
# Test system: lipid metabolism
# Experiment: Effects of diphosphonates on lipid metabolism in normal rats (serum lipids, α/β cholesterol)
# Type: in vivo, male Wistar rats
# Settings: Rattus norvegicus, po, normal rats (N), 200 mg/kg/day p.o.; read-out: Serum Chol. α/β (% control values)
# Protocol: Effects of diphosphonates of formula (I) on lipid metabolism in normal rats Groups of 4 to 5 normal male Wistar rats, weighing about 200 g were treated with diphosphonates (200 mg/kg/day) p.o. for 4 to 21 days. Water soluble compounds were given in solution in 24 mM bicarbonate buffer. Lipid soluble compounds were given in corn oil. The rats were weighed, sacrificed by decapitation (under light ether anesthesia) after overnight fasting. Blood was collected and serum used for analysis. The following blood parameters reflecting changes in lipid metabolism are reported: […]
# free fatty acids measured according to W. G. Duncombe (Clin. Acta 9, 122, 1964) triglycerides enzymatic method (Boehringer Mannheim Kit 126 012) phospholipids: molybdate/vanadate reaction (Boehringer Mannheim Kit 124 974) β-lipoprotein cholesterol was measured after heparin, CaCl2 precipitation according to M. Burstein et al. (La Presse Medicale 43, 974, 1958) and to D. Watson (Clin. Chim. Acta 5, 637, 1960).
# In above Table IV, results are given as % control values. Except for serum calcium, values which differ from control values by less than 15% are considered as non significant (NS).
# Serum free fatty acids, triglycerides and phospholipids were measured in normal rats (N) and rats previously fed a cholesterol diet for 10 days (C.F.) Serum α/β cholesterol, total lipids and cholesterol of liver and aorta were determined in normal rats (N) and rats which had previously been fed on high cholesterol diet (C.F.)
row,Compound,change in vivo at 200 mg/kg/day
1,"COP(=O)(OC)OC(c1cc(C)ccc1C)P(=O)(OC)OC (stereo not drawn) [Compound 19, Dimethyl α-(dimethoxyphosphinyl)2,5-dimethylbenzyl phosphate]",15%
2,COP(=O)(OC)OC(C(C)(C)c1ccccc1)P(=O)(OC)OC (stereo not drawn) [Compound 20],25%
3,COP(=O)(OC)OC(C(C)(C)Cc1ccc(Cl)cc1)P(=O)(OC)OC (stereo not drawn) [Compound 22],-38%
4,"COP(=O)(OC)OC(c1ccc(C(=O)c2ccc(Cl)cc2)cc1)P(=O)(OC)OC (stereo not drawn) [Compound 23, Dimethyl [α-(dimethoxyphosphinyl) 4-(4'-chlorobenzoyl)]benzyl phosphate]",55%
5,"CCOP(=O)(OCC)C(CCCc1ccccc1)P(=O)(OCC)OCC [Compound 29, Tetraethyl 4-phenylbutylidene 1,1-diphosphonate]",33%
6,"COP(=O)(OC)C(CCCc1ccccc1)P(=O)(OC)OC [Compound 37, Tetramethyl 4-phenylbutylidene 1,1-diphosphonate]",49%

# Same assay, conditions: Rattus norvegicus, po, normal rats (N), 200 mg/kg/day p.o.; read-out: Serum Phospholipids (% control values)
row,Compound,change in vivo at 200 mg/kg/day
1,"COP(=O)(OC)OC(c1cc(C)ccc1C)P(=O)(OC)OC (stereo not drawn) [Compound 19, Dimethyl α-(dimethoxyphosphinyl)2,5-dimethylbenzyl phosphate]",< 15%
2,COP(=O)(OC)OC(C(C)(C)c1ccccc1)P(=O)(OC)OC (stereo not drawn) [Compound 20],15%
3,COP(=O)(OC)OC(C(C)(C)Cc1ccc(Cl)cc1)P(=O)(OC)OC (stereo not drawn) [Compound 22],< 15%
4,"COP(=O)(OC)OC(c1ccc(C(=O)c2ccc(Cl)cc2)cc1)P(=O)(OC)OC (stereo not drawn) [Compound 23, Dimethyl [α-(dimethoxyphosphinyl) 4-(4'-chlorobenzoyl)]benzyl phosphate]",53%
5,"CCOP(=O)(OCC)C(CCCc1ccccc1)P(=O)(OCC)OCC [Compound 29, Tetraethyl 4-phenylbutylidene 1,1-diphosphonate]",17%
6,"COP(=O)(OC)C(CCCc1ccccc1)P(=O)(OC)OC [Compound 37, Tetramethyl 4-phenylbutylidene 1,1-diphosphonate]",33%

# Same assay, conditions: Rattus norvegicus, po, normal rats (N), 200 mg/kg/day p.o.; read-out: Serum Triglycerides (% control values)
row,Compound,change in vivo at 200 mg/kg/day
1,"COP(=O)(OC)OC(c1cc(C)ccc1C)P(=O)(OC)OC (stereo not drawn) [Compound 19, Dimethyl α-(dimethoxyphosphinyl)2,5-dimethylbenzyl phosphate]",< 15%
2,COP(=O)(OC)OC(C(C)(C)c1ccccc1)P(=O)(OC)OC (stereo not drawn) [Compound 20],36%
3,COP(=O)(OC)OC(C(C)(C)Cc1ccc(Cl)cc1)P(=O)(OC)OC (stereo not drawn) [Compound 22],-19%
4,"COP(=O)(OC)OC(c1ccc(C(=O)c2ccc(Cl)cc2)cc1)P(=O)(OC)OC (stereo not drawn) [Compound 23, Dimethyl [α-(dimethoxyphosphinyl) 4-(4'-chlorobenzoyl)]benzyl phosphate]",< 15%
5,"CCOP(=O)(OCC)C(CCCc1ccccc1)P(=O)(OCC)OCC [Compound 29, Tetraethyl 4-phenylbutylidene 1,1-diphosphonate]",46%
6,"COP(=O)(OC)C(CCCc1ccccc1)P(=O)(OC)OC [Compound 37, Tetramethyl 4-phenylbutylidene 1,1-diphosphonate]",42%

# Same assay, conditions: normal rats
row,Compound,"increased HDL lipids, especially HDL cholesterol"
1,"COP(=O)(OC)OC(c1ccc(C(=O)c2ccc(Cl)cc2)cc1)P(=O)(OC)OC (stereo not drawn) [Compound 23, Dimethyl [α-(dimethoxyphosphinyl) 4-(4'-chlorobenzoyl)]benzyl phosphate]",observed most dramatically
2,"COP(=O)(OC)C(CCCc1ccccc1)P(=O)(OC)OC [Compound 37, Tetramethyl 4-phenylbutylidene 1,1-diphosphonate]",observed most dramatically

# Same assay, conditions: normal rats (N), 200 mg/kg/day p.o.
Compound,Serum Chol. α/β (% control values),Serum Free Fatty Acids (% control values),Serum Phospholipids (% control values),Serum Triglycerides (% control values)
COP(=O)(OC)C(O)(C(C)(C)C)P(=O)(OC)OC [Compound 1],"NS (Except for serum calcium, values which differ from control values by less than 15% are considered as non significant (NS))","NS (Except for serum calcium, values which differ from control values by less than 15% are considered as non significant (NS))",-43%,+24%
COP(=O)(OC)OC(C1CCCCC1)P(=O)(OC)OC (stereo not drawn) [Compound 12],"NS (Except for serum calcium, values which differ from control values by less than 15% are considered as non significant (NS))",–,"NS (Except for serum calcium, values which differ from control values by less than 15% are considered as non significant (NS))",-46%
CCCCOP(=O)(OCCCC)OC(c1ccc(Cl)cc1)P(=O)(OCCCC)OCCCC (stereo not drawn) [Compound 25],"NS (Except for serum calcium, values which differ from control values by less than 15% are considered as non significant (NS))",–,"NS (Except for serum calcium, values which differ from control values by less than 15% are considered as non significant (NS))","NS (Except for serum calcium, values which differ from control values by less than 15% are considered as non significant (NS))"

# Same assay, conditions: rats
Compound,property to change lipid metabolism / increase HDL,decreases in serum triglycerides,increase in serum phospholipid,α-cholesterol/β-cholesterol ratio / lipoprotein cholesterol
COP(=O)(OC)C(O)(C(C)(C)C)P(=O)(OC)OC [Compound 1],do not have these properties,–,–,–
COP(=O)(OC)OC(C1CCCCC1)P(=O)(OC)OC (stereo not drawn) [Compound 12],–,Significant decreases,–,–
"COP(=O)(OC)OC(c1cc(C)ccc1C)P(=O)(OC)OC (stereo not drawn) [Compound 19, Dimethyl α-(dimethoxyphosphinyl)2,5-dimethylbenzyl phosphate]",–,Significant decreases,–,–
COP(=O)(OC)OC(C(C)(C)c1ccccc1)P(=O)(OC)OC (stereo not drawn) [Compound 20],–,–,found to increase,–
"COP(=O)(OC)OC(c1ccc(C(=O)c2ccc(Cl)cc2)cc1)P(=O)(OC)OC (stereo not drawn) [Compound 23, Dimethyl [α-(dimethoxyphosphinyl) 4-(4'-chlorobenzoyl)]benzyl phosphate]",–,–,found to increase; also recorded: at least two fold the most active,highly significant activity
"CCOP(=O)(OCC)C(CCCc1ccccc1)P(=O)(OCC)OCC [Compound 29, Tetraethyl 4-phenylbutylidene 1,1-diphosphonate]",–,–,found to increase,–
"COP(=O)(OC)C(CCCc1ccccc1)P(=O)(OC)OC [Compound 37, Tetramethyl 4-phenylbutylidene 1,1-diphosphonate]",–,–,found to increase,highly significant activity
